Assays:
[1] = tested on: Male spontaneously hypertensive rats (SHR), arterial blood pressure; test: Depressor response after intravenous administration (30 μg/kg), Table 1; assay type: in vivo, rat; details: for Duration: '90<' means greater than 90
Outline: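 Conscious restrained SHR with mean arterial pressure above 140 mmHg; pressure recorded via abdominal aortic catheter and transducer. Dosing was at least 2 h after surgery, through a caudal vein catheter. Compound was given in 1.5% PVP/ethanol diluted with 0.9% saline.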

[2] = tested on: rat (SHR), blood pressure and heart rate; test: Depressor response of trans- and cis-forms, dose-response intravenous, Tables 5 and 6; assay type: in vivo; details: for ED40: Rattus norvegicus, intravenous, from regression line
Procedure: Male spontaneously hypertensive rats (SHR) which had mean arterial blood pressures higher than 140 mmHg were used for the experiments. Arterial blood pressure was measured through the catherized artery with a pressure transducer (MPU-0.5, manufactured by Nihon Kohden Kabushiki Kaisha). The catheter was inserted into the abdominal aorta via the median coccygcal artery of SHR under light ether anesthesia. The recordings were made on a rectigraph (manufactured by Sanei Sokki Kabushiki Kaisha). The 1,4-dihydropyridine derivatives prepared in the foregoing examples were administered with catheter which was inserted previously into the caudal vein or duodenum at least two hours after the operation. SHR were restrained with wire mesh cage immediately after the operation. […]

[3] = tested on: Male SHR, systolic blood pressure; test: Systolic blood pressure by tail cuff method, oral administration (3 mg/kg), Table 4; assay type: in vivo, rat; details: conscious SHR; for Duration: '24<' means greater than 24
Procedure: Systolic blood pressure was measured by the tail cuff method with electrophygmomanometer (PE-300, made by Narco Co.). Each derivative (3 mg/kg) was administered orally, suspended in 5% gum arabic solution.

[4] = tested on: Male spontaneously hypertensive rats (SHR), arterial blood pressure; test: Depressor response after intraduodenal administration (1 mg/kg), Table 2; assay type: in vivo, rat; details: for Half-life: '120<' means greater than 120
Procedure: Arterial blood pressure was measured through the catherized artery with a pressure transducer (MPU-0.5, manufactured by Nihon Kohden Kabushiki Kaisha). The catheter was inserted into the abdominal aorta via the median coccygcal artery of SHR under light ether anesthesia. The recordings were made on a rectigraph (manufactured by Sanei Sokki Kabushiki Kaisha). The 1,4-dihydropyridine derivatives prepared in the foregoing examples were administered with catheter which was inserted previously into the caudal vein or duodenum at least two hours after the operation. SHR were restrained with wire mesh cage immediately after the operation.

in vivo = details: mouse, iv, male ddy mice, caudal vein injection, '60<' means greater than 60
Procedure: Acute toxicity of several derivatives was tested with male ddy mice weighed 15-30 grams by the up and down method. Each derivative was dissolved in 1.5% PVP/ethanol solution, and diluted with a saline solution. Such derivative solution was injected into the caudal vein, and the acute toxicity was determined.

Row | SMILES | The time to reach the lowest BP [1] [min] | ΔBP (Maximum depressor response) [1] [mmHg] | ΔBP After 1 hour [3] [mmHg] | ΔBP After 3 hours [3] [mmHg] | Duration [3] [h] | Duration [1] [min] | The time to reach the lowest BP [4] [min] | ΔBP (Maximum depressor response) [4] [mmHg] | Half-life [4] [min] | other results
1 | COC(=O)C1=C(C)NC(C)=C(C(=O)OC/C=C\c2ccccc2)C1c1cccc([N+](=O)[O-])c1 (stereo not drawn) [Example 56, Methyl (Z)-3-phenyl-2-propenyl 4-(3-nitrophenyl)-2,6-dimethyl-1,4-dihydropyridine-3,5-dicarboxylate (cis)] | 1.3 | 40.3 | – | – | – | – | – | – | – | Depressure Response MaxΔBP ([2]; 10 μg/kg i.v.): 16.0 mmHg; Depressure Response Peak ([2]; 10 μg/kg i.v.): 1.2 min; MaxΔHR (Heart rates) ([2]; 10 μg/kg i.v.): 30.0 beats/min; T 1/2 (Halflife) ([2]; 10 μg/kg i.v.): 6.3 min; Depressure Response MaxΔBP ([2]; 30 μg/kg i.v.): 40.3 mmHg; Depressure Response Peak ([2]; 30 μg/kg i.v.): 1.3 min; MaxΔHR (Heart rates) ([2]; 30 μg/kg i.v.): 80.0 beats/min; T 1/2 (Halflife) ([2]; 30 μg/kg i.v.): 11.9 min; Depressure Response MaxΔBP ([2]; 100 μg/kg i.v.): 67.5 mmHg; Depressure Response Peak ([2]; 100 μg/kg i.v.): 1.8 min; MaxΔHR (Heart rates) ([2]; 100 μg/kg i.v.): 87.5 beats/min; T 1/2 (Halflife) ([2]; 100 μg/kg i.v.): 32.0 min; ED40 [2]: 0.0299 mg/kg
2 | CC1=C(C(=O)OCC=Cc2ccccc2)C(c2cccc([N+](=O)[O-])c2)C(C(=O)OCCOc2ccccc2)=C(C)N1 (centres unmarked) [Example 44, Cinnamyl 2-phenoxyethyl 4-(3-nitrophenyl)-2,6-dimethyl-1,4-dihydropyridine-3,5-dicarboxylate] | 7 | 43 | -30 | -70 | 7 to 24 | – | – | – | – | halflife (number in parentheses in Duration column) [1]: 45 min
3 | COC(=O)C1=C(C)NC(C)=C(C(=O)OCCCC=Cc2ccccc2)C1c1cccc([N+](=O)[O-])c1 (centres unmarked) [Example 50, Methyl 5-phenyl-4-pentenyl 4-(3-nitrophenyl)-2,6-dimethyl-1,4-dihydropyridine-3,5-dicarboxylate] | 2 | 64 | -75 | – | – | > 90 | – | – | – | –
4 | CCOC(=O)C1=C(C)NC(C)=C(C(=O)OCC=Cc2ccccc2)C1c1cccc([N+](=O)[O-])c1 (centres unmarked) [Example 15, Cinnamyl ethyl 4-(3-nitrophenyl)-2,6-dimethyl-1,4-dihydropyridine-3,5-dicarboxylate] | – | – | – | -35 | 7 to 24 | – | 75 | 45 | > 120 | –
5 | COC(=O)C1=C(C)NC(C)=C(C(=O)OCC=CC=Cc2ccccc2)C1c1cccc([N+](=O)[O-])c1 (centres unmarked) [Example 16, 5-phenyl-2,4-pentadienyl methyl 4-(3-nitrophenyl)-2,6-dimethyl-1,4-dihydropyridine-3,5-dicarboxylate] | – | – | -55 | -60 | > 24 | – | 50 | 45 | > 120 | –
6 | COC(=O)C1=C(C)NC(C)=C(C(=O)OC)C1c1ccccc1[N+](=O)[O-] [A, 4-(o-nitrophenyl)-2,6-dimethyl-1,4-dihydropyridine-3,5-dicarboxylic acid dimethyl ester, reference compound] | 0.9 | 18.7 | -45 | -22.0 | < 7 | 35.6 ± 6.5 | 6.0 | 48.3 | – | –
7 | COC(=O)C1=C(C)NC(C)=C(C(=O)OCC=Cc2ccco2)C1c1cccc([N+](=O)[O-])c1 (centres unmarked) [Example 7, 3-(2furyl)-2-propenyl methyl 4-(3-nitrophenyl)-2,6-dimethyl-1,4-dihydropyridine-3,5-dicarboxylate] | – | – | – | – | – | – | 105 | 20 | > 120 | LD50 (in vivo): > 60 mg/kg
8 | COC(=O)C1=C(C)NC(C)=C(C(=O)OCC/C=C\c2ccc3ccccc3c2)C1c1cccc([N+](=O)[O-])c1 (stereo not drawn) [Example 57, Methyl (Z)-4-(2-naphthyl)-3-butenyl 4-(3-nitrophenyl)-2,6-dimethyl-1,4-dihydropyridine-3,5-dicarboxylate (cis)] | 2.6 | 26.8 | – | – | – | – | – | – | – | LD50 (in vivo): > 75 mg/kg; Depressure Response MaxΔBP ([2]; 10 μg/kg i.v.): 12.0 mmHg; Depressure Response Peak ([2]; 10 μg/kg i.v.): 3.2 min; MaxΔHR (Heart rates) ([2]; 10 μg/kg i.v.): 23.3 beats/min; T 1/2 (Halflife) ([2]; 10 μg/kg i.v.): 14.0 min; Depressure Response MaxΔBP ([2]; 30 μg/kg i.v.): 26.8 mmHg; Depressure Response Peak ([2]; 30 μg/kg i.v.): 2.6 min; MaxΔHR (Heart rates) ([2]; 30 μg/kg i.v.): 62.5 beats/min; T 1/2 (Halflife) ([2]; 30 μg/kg i.v.): 15.0 min; Depressure Response MaxΔBP ([2]; 100 μg/kg i.v.): 68.5 mmHg; Depressure Response Peak ([2]; 100 μg/kg i.v.): 3.8 min; MaxΔHR (Heart rates) ([2]; 100 μg/kg i.v.): 120 beats/min; T 1/2 (Halflife) ([2]; 100 μg/kg i.v.): 25.0 min; ED40 [2]: 0.0408 mg/kg
9 | COC(=O)C1=C(C)NC(C)=C(C(=O)OCCC=Cc2ccc(C#N)cc2)C1c1cccc([N+](=O)[O-])c1 (centres unmarked) [Example 17, 4-(4-cyanophenyl)-3-butenyl methyl 4-(3-nitrophenyl)-2,6-dimethyl-1,4-dihydropyridine-3,5-dicarboxylate] | 1.0 | 70 | – | – | – | > 80 | 180 | 25 | > 200 | LD50 (in vivo): 45 mg/kg
10 | COC(=O)C1=C(C)NC(C)=C(C(=O)OCCC=Cc2ccc(SC)cc2)C1c1cccc([N+](=O)[O-])c1 (centres unmarked) [Example 24, 4-(p-methylthiophenyl)-3-butenylmethyl 4-(3-nitrophenyl)-2,6-dimethyl-1,4-dihydropyridine-3,5-dicarboxylate] | 2.1 | 60 | – | – | – | 120 | 160 | 27 | > 160 | LD50 (in vivo): 50 mg/kg
11 | COC(=O)C1=C(C)NC(C)=C(C(=O)OC/C=C/c2ccccc2)C1c1cccc([N+](=O)[O-])c1 (stereo not drawn) [Example 1, cinnamyl methyl 4-(3-nitrophenyl)-2,6-dimethyl-1,4-dihydropyridine-3,5-dicarboxylate (trans)] | 1.7 | 44 | -75 | -80.5 | 7 to 24 | > 90 | 43.7 | 35.0 | > 120 | Depressure Response MaxΔBP ([2]; 10 μg/kg i.v.): 35.0 mmHg; Depressure Response Peak ([2]; 10 μg/kg i.v.): 2.0 min; MaxΔHR (Heart rates) ([2]; 10 μg/kg i.v.): 28.3 beats/min; T 1/2 (Halflife) ([2]; 10 μg/kg i.v.): 32.6 min; Depressure Response MaxΔBP ([2]; 30 μg/kg i.v.): 52.2 mmHg; Depressure Response Peak ([2]; 30 μg/kg i.v.): 1.8 min; MaxΔHR (Heart rates) ([2]; 30 μg/kg i.v.): 65.3 beats/min; T 1/2 (Halflife) ([2]; 30 μg/kg i.v.): 26.7 min; Depressure Response MaxΔBP ([2]; 100 μg/kg i.v.): 69.0 mmHg; Depressure Response Peak ([2]; 100 μg/kg i.v.): 2.0 min; MaxΔHR (Heart rates) ([2]; 100 μg/kg i.v.): 32.5 beats/min; T 1/2 (Halflife) ([2]; 100 μg/kg i.v.): 48.5 min; ED40 [2]: 0.0156 mg/kg
12 | CC1=C(C(=O)OCC=CC=Cc2ccccc2)C(c2cccc([N+](=O)[O-])c2)C(C(=O)OC(C)C)=C(C)N1 (centres unmarked) [Example 61, Isopropyl 5-phenyl-2,4-pentadienyl 4-(3-nitrophenyl)-2,6-dimethyl-1,4-dihydropyridine-3,5-dicarboxylate] | 7.0 | 85 | -40 | -100 | – | > 90 | – | – | – | –
13 | COC(=O)C1=C(C)NC(C)=C(C(=O)OCCC=Cc2ccc3ccccc3c2)C1c1cccc([N+](=O)[O-])c1 (stereo not drawn) [Example 12, 4-β-naphthyl-3-butenyl methyl 4-(3-nitrophenyl)-2,6-dimethyl-1,4-dihydropyridine-3,5-dicarboxylate] | – | – | -30 | -55 | > 24 | – | – | – | – | –
14 | COC(=O)C1=C(C)NC(C)=C(C(=O)OC(C=Cc2ccccc2)c2ccccc2)C1c1cccc([N+](=O)[O-])c1 (centres unmarked) [Example 27, 1,3-diphenyl-2-propenyl methyl 4-(3-nitrophenyl)-2,6-dimethyl-1,4-dihydropyridine-3,5-dicarboxylate] | 56 | 45 | -130 | -113 | – | > 240 | 170 | 82 | > 240 | –
